These results are taken from patent publication US20260167623A1 (NIKANG THERAPEUTICS, INC., priority 2022, published 2026).

This assay concerns the target T1, CDK2 (Homo sapiens, UniProt P24941).
T1 construct: High-Throughput Measurement of Cellular Endogenous CDK2; endogenous in cells; host or cells: OVCAR3
Briefly: Inhibition of CDK2: phospho-Rb (S807/811) HTRF measurement in OVCAR3 cells, 24 h. In kind it is cell-based. Particulars: 24 h compound treatment, read-out: pRB_OVCAR3_24h. The method, boiled down:
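IC50 came from a four-parameter fit of DMSO-normalized TR-FRET ratios (665/620 nm) reporting phospho-Rb S807/811. Lysates were taken from OVCAR3 cultures treated 24 h with compound (0.3 to 10,000 nM) and incubated 4 h at room temperature with the antibody pair.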

Structures are written as SMILES.

With `Cn1nc(N2CCC(=O)NC2=O)c2ccc(C3CCN(CC4CCN(c5cccc(S(=O)(=O)N6CC(Nc7ncc(C(F)(F)F)cn7)C6)c5)CC4)CC3)cc21` [Example 178, 1-(1-methyl-6-(1-((1-(3-((3-((5-(trifluoromethyl)pyrimidin-2-yl)amino)azetidin-1-yl)sulfonyl)phenyl)piperidin-4-yl)methyl)piperidin-4-yl)-1H-indazol-3-yl)dihydropyrimidine-2,4(1H,3H)-dione], the IC50 was > 2500 nM.
Under `Cn1nc(N2CCC(=O)NC2=O)c2ccc(CN3CCN(c4cccc(S(=O)(=O)N5CCC(Nc6ncc(C(F)(F)F)cn6)CC5)c4)CC3)cc21` [Example 179, 1-(1-methyl-6-((4-(3-((4-((5-(trifluoromethyl)pyrimidin-2-yl)amino)piperidin-1-yl)sulfonyl)phenyl)piperazin-1-yl)methyl)-1H-indazol-3-yl)dihydropyrimidine-2,4(1H,3H)-dione] stands 500 to 2500 nM.
Under `O=C1CCN(c2cccc(C3CCN(CC4CCN(c5cccc(S(=O)(=O)N6CCC(Nc7ncc(Cl)cn7)CC6)c5)CC4)CC3)c2)C(=O)N1` [Example 182, 1-(3-(1-((1-(3-((4-((5-chloropyrimidin-2-yl)amino)piperidin-1-yl)sulfonyl)phenyl)piperidin-4-yl)methyl)piperidin-4-yl)phenyl) dihydropyrimidine-2,4(1H,3H)-dione] stands 100 to 500 nM; under `Cn1nc(N2CCC(=O)NC2=O)c2ccc(C3CCN(Cc4ccnc(S(=O)(=O)N5CCC(Nc6ncc(C(F)(F)F)cn6)CC5)c4)CC3)cc21` [Example 183, 1-(1-methyl-6-(1-((2-((4-((5-(trifluoromethyl)pyrimidin-2-yl)amino)piperidin-1-yl)sulfonyl)pyridin-4-yl)methyl)piperidin-4-yl)-1H-indazol-3-yl)dihydropyrimidine-2,4(1H,3H)-dione], 500 to 2500 nM; under `N#Cc1ccc(S(=O)(=O)N2CCC(Nc3ncc(Cl)cn3)CC2)cc1N1CCC(CN2CCN(c3cc4c(cc3F)C(=O)N(C3CCC(=O)NC3=O)C4=O)CC2)CC1` (stereo not drawn) [Example 185, 4-((4-((5-chloropyrimidin-2-yl)amino)piperidin-1-yl)sulfonyl)-2-(4-((4-(2-(2,6-dioxopiperidin-3-yl)-6-fluoro-1,3-dioxoisoindolin-5-yl)piperazin-1-yl)methyl)piperidin-1-yl)benzonitrile], 500 to 2500 nM.
For `O=C1CCC(n2c(=O)n(CC3CCN(CC4CCN(c5cccc(S(=O)(=O)N6CCC(Nc7ncc(C(F)(F)F)cn7)CC6)c5)CC4)CC3)c3ccccc32)C(=O)N1` (stereo not drawn) [Example 186, 3-(2-oxo-3-((1-((1-(3-((4-((5-(trifluoromethyl)pyrimidin-2-yl)amino)piperidin-1-yl)sulfonyl)phenyl)piperidin-4-yl)methyl)piperidin-4-yl)methyl)-2,3-dihydro-1H-benzo[d]imidazol-1-yl)piperidine-2,6-dione], the IC50 lay in the range of 1 to 100 nM.
Under `Cn1nc(N2CCC(=O)NC2=O)c2ccc(C3CCN(CC4CCN(c5cccc(S(=O)(=O)N6CCC(Nc7ncc(Cl)cn7)CC6)c5F)CC4)CC3)cc21` [Example 187, 1-(6-(1-((1-(3-((4-((5-chloropyrimidin-2-yl)amino)piperidin-1-yl)sulfonyl)-2-fluorophenyl)piperidin-4-yl)methyl)piperidin-4-yl)-1-methyl-1H-indazol-3-yl)dihydropyrimidine-2,4(1H,3H)-dione] stands 100 to 500 nM; under `Cn1nc(N2CCC(=O)NC2=O)c2ccc(C3CCN(CC4CCN(c5ccc(F)c(S(=O)(=O)N6CCC(Nc7ncc(Cl)cn7)CC6)c5)CC4)CC3)cc21` [Example 189, 1-(6-(1-((1-(3-((4-((5-chloropyrimidin-2-yl)amino)piperidin-1-yl)sulfonyl)-4-fluorophenyl)piperidin-4-yl)methyl)piperidin-4-yl)-1-methyl-1H-indazol-3-yl)dihydropyrimidine-2,4(1H,3H)-dione], > 2500 nM; under `Cn1nc(N2CCC(=O)NC2=O)c2ccc(N3CCC(CN4CC5CCC(C4)N5c4cccc(S(=O)(=O)N5CCC(Nc6ncc(Cl)cn6)CC5)c4)CC3)cc21` [Example 191, 1-(6-(4-((8-(3-((4-((5-chloropyrimidin-2-yl)amino)piperidin-1-yl)sulfonyl)phenyl)-3,8-diazabicyclo[3.2.1]octan-3-yl)methyl)piperidin-1-yl)-1-methyl-1H-indazol-3-yl)dihydropyrimidine-2,4(1H,3H)-dione], > 2500 nM.
The same measure for `Cn1nc(N2CCC(=O)NC2=O)c2ccc(C3CCN(CC4CCN(c5cccc(S(=O)(=O)N6CCC(Nc7ncc(F)cn7)CC6)c5)CC4)CC3)cc21` [Example 193, 1-(6-(1-((1-(3-((4-((5-fluoropyrimidin-2-yl)amino)piperidin-1-yl)sulfonyl)phenyl)piperidin-4-yl)methyl)piperidin-4-yl)-1-methyl-1H-indazol-3-yl)dihydropyrimidine-2,4(1H,3H)-dione]: 500 to 2500 nM; for `O=C1CCN(c2cncc3c(C4CCN(CC5CCN(c6cccc(S(=O)(=O)N7CCC(Nc8ncc(Cl)cn8)CC7)c6)CC5)CC4)cccc23)C(=O)N1` [Example 194, 1-(8-(1-((1-(3-((4-((5-chloropyrimidin-2-yl)amino)piperidin-1-yl)sulfonyl)phenyl)piperidin-4-yl)methyl)piperidin-4-yl)isoquinolin-4-yl)dihydropyrimidine-2,4(1H,3H)-dione]: 100 to 500 nM.
Under `Cn1nc(N2CCC(=O)NC2=O)c2ccc(C3CCN(CC4CCN(c5cccc(S(=O)(=O)N6CCC(Nc7ncc(C(F)F)cn7)CC6)c5)CC4)CC3)cc21` [Example 195, 1-(6-(1-((1-(3-((4-((5-(difluoromethyl)pyrimidin-2-yl)amino)piperidin-1-yl)sulfonyl)phenyl)piperidin-4-yl)methyl)piperidin-4-yl)-1-methyl-1H-indazol-3-yl)dihydropyrimidine-2,4(1H,3H)-dione] stands 500 to 2500 nM.
On to `Cn1c(=O)n(C2CCC(=O)NC2=O)c2cccc(C3CCN(Cc4cc(S(=O)(=O)N5CCC(Nc6ncc(OC(F)F)cn6)CC5)ccc4C#N)CC3)c21` (stereo not drawn) [Example 196, 4-((4-((5-(difluoromethoxy)pyrimidin-2-yl)amino)piperidin-1-yl)sulfonyl)-2-((4-(1-(2,6-dioxopiperidin-3-yl)-3-methyl-2-oxo-2,3-dihydro-1H-benzo[d]imidazol-4-yl)piperidin-1-yl)methyl)benzonitrile], for which the IC50 fell in the range of 100 to 500 nM.
Regarding `N#Cc1ccc(S(=O)(=O)N2CCC(Nc3ncc(Cl)cn3)CC2)cc1N1CCC(CN2CCN(c3ccc4c(c3)CN(C3CCC(=O)NC3=O)C4=O)CC2)CC1` (stereo not drawn) [Example 200, 4-((4-((5-chloropyrimidin-2-yl)amino)piperidin-1-yl)sulfonyl)-2-(4-((4-(2-(2,6-dioxopiperidin-3-yl)-1-oxoisoindolin-5-yl)piperazin-1-yl)methyl)piperidin-1-yl)benzonitrile], the IC50 lay within 100 to 500 nM.
As to `CC1(C)C(=O)N(C2CCC(=O)NC2=O)c2cccc(C3CCN(CC4CCN(c5cc(S(=O)(=O)N6CCC(Nc7ncc(Cl)cn7)CC6)ccc5C#N)CC4)CC3)c21` (stereo not drawn) [Example 207, 4-((4-((5-chloropyrimidin-2-yl)amino)piperidin-1-yl)sulfonyl)-2-(4-((4-(1-(2,6-dioxopiperidin-3-yl)-3,3-dimethyl-2-oxoindolin-4-yl)piperidin-1-yl)methyl)piperidin-1-yl)benzonitrile], the IC50 was 100 to 500 nM.
Under `Cn1nc(-n2ccc(=O)[nH]c2=O)c2ccc(C3CCN(CC4CCN(c5cccc(S(=O)(=O)N6CCC(Nc7ncc(Cl)cn7)CC6)c5)CC4)CC3)cc21` [Example 210, 1-(6-(1-((1-(3-((4-((5-chloropyrimidin-2-yl)amino)piperidin-1-yl)sulfonyl)phenyl)piperidin-4-yl)methyl)piperidin-4-yl)-1-methyl-1H-indazol-3-yl)pyrimidine-2,4(1H,3H)-dione] stands 100 to 500 nM; under `Cn1nc(N2CCC(=O)NC2=O)c2ncc(C3CCN(CC4CCN(c5cccc(S(=O)(=O)N6CCC(Nc7ncc(C(F)(F)F)cn7)CC6)c5)CC4)CC3)cc21` [Example 212, 1-(1-methyl-6-(1-((1-(3-((4-((5-(trifluoromethyl)pyrimidin-2-yl)amino)piperidin-1-yl)sulfonyl)phenyl)piperidin-4-yl)methyl)piperidin-4-yl)-1H-pyrazolo[4,3-b]pyridin-3-yl)dihydropyrimidine-2,4(1H,3H)-dione], 500 to 2500 nM; under `O=C1CCN(c2cnc3c(C4CCN(CC5CCN(c6cccc(S(=O)(=O)N7CCC(Nc8ncc(Cl)cn8)CC7)c6)CC5)CC4)cccn23)C(=O)N1` [Example 213, 1-(8-(1-((1-(3-((4-((5-chloropyrimidin-2-yl)amino)piperidin-1-yl)sulfonyl)phenyl)piperidin-4-yl)methyl)piperidin-4-yl)imidazo[1,2-a]pyridin-3-yl)dihydropyrimidine-2,4(1H,3H)-dione], 100 to 500 nM.
Under `Cn1nc(N2CCC(=O)NC2=O)c2ncc(C3CCN(CC4CCN(c5cccc(S(=O)(=O)N6CCC(Nc7ncc(Cl)cn7)CC6)c5)CC4)CC3)cc21` [Example 215] stands 500 to 2500 nM; under `CO[C@@H]1CN(S(=O)(=O)c2cccc(N3CCC(CN4CCC(c5ccc6c(N7CCC(=O)NC7=O)nn(C)c6c5)CC4)CC3)c2)CC[C@@H]1Nc1ncc(Cl)cn1` [Example 218, 1-(6-(1-((1-(3-(((3R,4S)-4-((5-chloropyrimidin-2-yl)amino)-3-methoxypiperidin-1-yl)sulfonyl)phenyl)piperidin-4-yl)methyl)piperidin-4-yl)-1-methyl-1H-indazol-3-yl)dihydropyrimidine-2,4(1H,3H)-dione], > 2500 nM.
For the molecule `O=C1CCC(NC(=O)c2ccc(C3CCN(CC4CCN(c5cccc(S(=O)(=O)N6CCC(Nc7ncc(C(F)(F)F)cn7)CC6)c5)CC4)CC3)cn2)C(=O)N1` (stereo not drawn) [Example 225, N-(2,6-dioxopiperidin-3-yl)-5-(1-((1-(3-((4-((5-(trifluoromethyl)pyrimidin-2-yl)amino)piperidin-1-yl)sulfonyl)phenyl)piperidin-4-yl)methyl)piperidin-4-yl)picolinamide], the IC50 lay in the range of 100 to 500 nM.
